Data reported in PubChem BioAssay (NCI).
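Each compound was tested at five concentrations against cells in 96-well plates for 48 hours. TGI marks complete inhibition of growth.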

Legend:
Test in all cases: inhibition of tumour cell growth, NCI panel, 48 h
NCI-H522 lung = tested on: NCI-H522 lung
OVCAR-3 ovarian = tested on: OVCAR-3 ovarian
IGROV1 ovarian = tested on: IGROV1 ovarian
NCI-H23 lung = tested on: NCI-H23 lung
DU-145 prostate = tested on: DU-145 prostate
SF-295 CNS = tested on: SF-295 CNS
MOLT-4 leukemia = tested on: MOLT-4 leukemia
SN12C renal = tested on: SN12C renal
K-562 leukemia = tested on: K-562 leukemia
NCI-H226 lung = tested on: NCI-H226 lung
HCT-116 colon = tested on: HCT-116 colon
SF-539 CNS = tested on: SF-539 CNS
OVCAR-8 ovarian = tested on: OVCAR-8 ovarian
SNB-19 CNS = tested on: SNB-19 CNS
MDA-MB-435 = tested on: MDA-MB-435
NCI/ADR-RES ovarian = tested on: NCI/ADR-RES ovarian
SF-268 CNS = tested on: SF-268 CNS
HT29 colon = tested on: HT29 colon
HS 578T breast = tested on: HS 578T breast
RPMI-8226 leukemia = tested on: RPMI-8226 leukemia

Row | SMILES | TGI (NCI-H522 lung) | TGI (OVCAR-3 ovarian) | TGI (IGROV1 ovarian) | TGI (NCI-H23 lung) | TGI (DU-145 prostate) | TGI (SF-295 CNS) | TGI (MOLT-4 leukemia) | TGI (SN12C renal) | TGI (K-562 leukemia) | TGI (NCI-H226 lung) | TGI (HCT-116 colon) | TGI (SF-539 CNS) | TGI (OVCAR-8 ovarian) | TGI (SNB-19 CNS) | TGI (MDA-MB-435) | TGI (NCI/ADR-RES ovarian) | TGI (SF-268 CNS) | TGI (HT29 colon) | TGI (HS 578T breast) | TGI (RPMI-8226 leukemia)
1 | CCCN1C(=O)CCC2=C1CCc1c2ccc(Cl)c1Cl | 91.4 µM | 86.7 µM | > 100 µM | > 100 µM | > 100 µM | > 100 µM | > 100 µM | > 100 µM | > 100 µM | > 100 µM | > 100 µM | 95.4 µM | > 100 µM | > 100 µM | > 100 µM | > 100 µM | > 100 µM | > 100 µM | 22 µM | > 100 µM
2 | CN1CCC2(CC1)C(=O)N(N1CCCCCC1)C(=O)N2c1ccccc1 | > 100 µM | > 100 µM | > 100 µM | > 100 µM | > 100 µM | > 100 µM | > 100 µM | > 100 µM | > 100 µM | > 100 µM | > 100 µM | > 100 µM | > 100 µM | > 100 µM | > 100 µM | > 100 µM | > 100 µM | > 100 µM | > 100 µM | > 100 µM
3 | OCCN(CCO)c1ccc2c(C(F)(F)F)cc(C(F)(F)F)nc2n1 | > 100 µM | > 100 µM | > 100 µM | > 100 µM | > 100 µM | > 100 µM | > 100 µM | > 100 µM | > 100 µM | > 100 µM | > 100 µM | > 100 µM | > 100 µM | > 100 µM | > 100 µM | > 100 µM | > 100 µM | > 100 µM | > 100 µM | > 100 µM
4 | NC1C/C(=N\O)c2c(I)sc(I)c21 (stereo not given) | 3.7 µM | 30.2 µM | 30.8 µM | 30.2 µM | 31.4 µM | 31.8 µM | > 100 µM | > 56.6 µM | > 74.1 µM | 34.1 µM | 15.2 µM | 20.3 µM | 29.1 µM | 39.3 µM | 27.2 µM | 43.1 µM | 35.3 µM | 48.8 µM | 48.9 µM | > 42 µM
5 | CC(=O)Nc1ccc(CNc2cc(=O)[nH]c(=O)[nH]2)cc1 | > 100 µM | > 100 µM | > 100 µM | > 100 µM | > 100 µM | > 100 µM | > 100 µM | > 100 µM | > 100 µM | > 100 µM | > 100 µM | > 100 µM | > 100 µM | > 100 µM | > 100 µM | > 100 µM | > 100 µM | > 100 µM | > 100 µM | > 100 µM
6 | CC(=O)OC1CC2CCC1(C)C2(C)C (stereo not given) | > 100 µM | > 100 µM | > 100 µM | > 100 µM | > 100 µM | > 100 µM | > 100 µM | > 100 µM | > 100 µM | > 100 µM | > 100 µM | > 100 µM | > 100 µM | > 100 µM | > 100 µM | > 100 µM | > 100 µM | > 100 µM | > 100 µM | > 100 µM
7 | CC(=O)Oc1ccc2c(c1)c1c(=O)oc(N(C)C)nc1n2Cc1ccccc1 | > 100 µM | > 100 µM | > 100 µM | > 100 µM | > 100 µM | > 100 µM | > 100 µM | > 100 µM | > 100 µM | > 100 µM | > 100 µM | > 100 µM | > 100 µM | > 100 µM | > 100 µM | > 100 µM | > 100 µM | > 100 µM | > 100 µM | > 100 µM
8 | O=C1c2ccccc2-c2nc(-c3cccnc3)cc3c2c1nc1ccccc13 | > 100 µM | > 100 µM | > 100 µM | > 100 µM | > 100 µM | > 100 µM | > 100 µM | > 100 µM | > 100 µM | > 100 µM | > 100 µM | > 100 µM | > 100 µM | > 100 µM | 34.7 µM | > 100 µM | > 100 µM | > 100 µM | > 100 µM | > 100 µM
9 | CC(C)(C)c1ccc(CN2CCN(C(c3ccccc3)c3ccc(Cl)cc3)CC2)cc1 (stereo not given) | 85.1 µM | > 100 µM | > 100 µM | > 100 µM | > 100 µM | > 100 µM | > 100 µM | > 100 µM | > 100 µM | 62.2 µM | > 100 µM | > 100 µM | > 100 µM | > 100 µM | > 100 µM | > 100 µM | > 100 µM | 56.9 µM | > 100 µM | > 100 µM
10 | O=C(Oc1ccccc1)c1cc2cc(CCl)ccc2oc1=O | 24.6 µM | > 100 µM | > 100 µM | 42 µM | 98.7 µM | 98.4 µM | > 100 µM | 67.4 µM | > 100 µM | > 100 µM | > 100 µM | > 100 µM | > 100 µM | > 100 µM | > 100 µM | > 100 µM | 73.9 µM | > 100 µM | 52.8 µM | > 100 µM
11 | Cc1nn(C(=O)c2ccc(Cl)cc2)c2c1C(c1ccc([N+](=O)[O-])cc1)SC(N)=N2 (stereo not given) | > 10 µM | > 10 µM | > 10 µM | > 10 µM | > 10 µM | > 10 µM | > 10 µM | > 10 µM | > 10 µM | > 10 µM | > 10 µM | > 10 µM | > 10 µM | > 10 µM | > 10 µM | > 10 µM | > 10 µM | > 10 µM | > 10 µM | > 10 µM
